Bridge positions count the residues as written; N and C are the ends. Square brackets hold non-standard residues; d marks the D form. Peptide text beside a SMILES is read from it. Hyp = O=C(O)[C@@H]1C[C@@H](O)CN1; Cit = NC(=O)NCCC[C@H](N)C(=O)O
Legend:
hAMY3 receptor = target: T1, hAMY3 receptor (Homo sapiens, UniProt O60896+P30988); assay: cAMP assay for in vitro receptor activation, hAMY3-R; format: cell-based; conditions: cAMP assay, hAMY3 receptor; read-out: hAMY3R EC50
T1 sequence (P30988 25-474): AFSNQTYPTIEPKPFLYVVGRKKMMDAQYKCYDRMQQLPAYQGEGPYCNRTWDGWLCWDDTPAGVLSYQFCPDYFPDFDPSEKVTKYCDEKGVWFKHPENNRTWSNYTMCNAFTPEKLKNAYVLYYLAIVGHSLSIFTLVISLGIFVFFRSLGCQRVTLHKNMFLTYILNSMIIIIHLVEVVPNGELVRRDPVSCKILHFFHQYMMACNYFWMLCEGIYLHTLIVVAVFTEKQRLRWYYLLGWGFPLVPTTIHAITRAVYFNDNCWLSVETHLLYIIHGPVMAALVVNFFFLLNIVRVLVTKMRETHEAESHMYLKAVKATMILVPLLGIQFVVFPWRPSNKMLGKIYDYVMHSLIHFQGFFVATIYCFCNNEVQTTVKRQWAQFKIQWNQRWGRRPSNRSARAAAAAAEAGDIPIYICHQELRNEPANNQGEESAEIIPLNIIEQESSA
T1 sequence (O60896 24-148 partner): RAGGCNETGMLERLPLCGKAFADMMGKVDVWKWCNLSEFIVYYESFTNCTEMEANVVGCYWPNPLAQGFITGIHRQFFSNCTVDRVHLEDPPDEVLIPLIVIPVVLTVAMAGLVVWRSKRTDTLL
Procedure, shortened: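 Stable hAMY3 cells; DPBS + 0.05% casein + 0.5 mM IBMX; graded compound doses, 30 min, RT; cAMP via HTRF Gs kit, TR-FRET read at 1 h.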

[1] = Physical stability of peptide analogues (Thioflavin T fibrillation); format: physicochemical; conditions: maximum ThT signal normalized between hAMY maximum and buffer background; 40° C., shaking, four days; pH 7 per table title
Procedure, shortened: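 Peptides in 50 mM sodium acetate pH 4 or 50 mM sodium phosphate pH 7 were preincubated 1 h, mixed with 4 μM ThT, held at 40° C with 700 rpm shaking before each read. Fluorescence (ex 450/em 480 nm) every 10 min for four days; LOESS-smoothed maximum signal normalized in percent between hAMY and buffer.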

Row | Structure (SMILES) | EC50 (hAMY3 receptor) [pM] | Max ThT signal (%) [1] [%]
1 | CC[C@H](C)[C@H](NC(=O)[C@H](CC(N)=O)NC(=O)[C@H](CO)NC(=O)[C@H](CCCNC(=N)N)NC(=O)[C@@H]1CCCN1C(=O)[C@H](C)NC(=O)[C@@H](NC(=O)[C@H](CC(N)=O)NC(=O)[C@H](CC(=O)O)NC(=O)[C@H](CCCCN)NC(=O)[C@H](CC(=O)O)NC(=O)[C@H](CCCCN)NC(=O)[C@H](CC(=O)O)NC(=O)[C@@H](NC(=O)[C@H](Cc1ccccc1)NC(=O)[C@H](CCC(N)=O)NC(=O)[C@H](Cc1ccc(O)cc1)NC(=O)[C@@H](NC(=O)[C@H](CCC(N)=O)NC(=O)[C@H](Cc1c[nH]cn1)NC(=O)[C@H](C)NC(=O)[C@H](CC(C)C)NC(=O)[C@H](CCCNC(=N)N)NC(=O)[C@H](CCC(N)=O)NC(=O)[C@@H](NC(=O)[C@@H](NC(=O)[C@@H]1CSSC[C@H](NC(=O)CN)C(=O)N[C@@H](CCCNC(=N)N)C(=O)N[C@@H]([C@@H](C)O)C(=O)NCC(=O)N[C@@H]([C@@H](C)O)C(=O)N1)[C@@H](C)O)C(C)C)[C@@H](C)CC)[C@@H](C)O)C(C)C)C(=O)NCC(=O)N1CCC[C@H]1C(=O)N[C@@H](CCC(N)=O)C(=O)NCC(=O)N[C@@H](Cc1ccc(O)cc1)C(N)=O [compound 191] (H-GCRTGTCTVQRLAHQIYQFTDKDKDNVAPRSNIGPQGY-NH2; disulfide 2-7; N-terminus assumed) | 98 | 6.300
2 | CC[C@H](C)[C@H](NC(=O)[C@H](CCC(N)=O)NC(=O)[C@H](Cc1c[nH]cn1)NC(=O)[C@H](C)NC(=O)[C@H](CC(C)C)NC(=O)[C@H](CCCNC(=N)N)NC(=O)[C@H](CCC(N)=O)NC(=O)[C@@H](NC(=O)[C@@H](NC(=O)[C@@H]1CSSC[C@H](NC(=O)CN)C(=O)N[C@@H](CCCNC(=N)N)C(=O)N[C@@H]([C@@H](C)O)C(=O)NCC(=O)N[C@@H]([C@@H](C)O)C(=O)N1)[C@@H](C)O)C(C)C)C(=O)N[C@@H](Cc1ccc(O)cc1)C(=O)N[C@@H](CCC(N)=O)C(=O)N[C@@H](Cc1ccccc1)C(=O)N[C@H](C(=O)N[C@@H](CC(=O)O)C(=O)N[C@@H](CCCCN)C(=O)N[C@@H](CC(=O)O)C(=O)N[C@@H](CCCCN)C(=O)N[C@@H](CC(=O)O)C(=O)N[C@@H](CC(N)=O)C(=O)N[C@H](C(=O)N[C@@H](C)C(=O)N1CCC[C@H]1C(=O)N[C@@H](CCCNC(=N)N)C(=O)N[C@H](C(=O)N[C@@H](CCCCN)C(=O)N[C@H](C(=O)NCC(=O)N1CCC[C@H]1C(=O)N[C@@H](CCC(N)=O)C(=O)NCC(=O)N1C[C@H](O)C[C@H]1C(N)=O)C(C)C)[C@@H](C)O)C(C)C)[C@@H](C)O [compound 143] (H-GCRTGTCTVQRLAHQIYQFTDKDKDNVAPRTKVGPQG[Hyp]-NH2; disulfide 2-7; N-terminus assumed) | 38 | 2.200
3 | CC[C@H](C)[C@H](NC(=O)[C@H](CCC(N)=O)NC(=O)[C@H](Cc1c[nH]cn1)NC(=O)[C@H](C)NC(=O)[C@H](CC(C)C)NC(=O)[C@H](CCCNC(=N)N)NC(=O)[C@H](CCC(N)=O)NC(=O)[C@@H](NC(=O)[C@@H](NC(=O)[C@@H]1CSSC[C@H](NC(=O)CN)C(=O)N[C@@H](CCCNC(=N)N)C(=O)N[C@@H]([C@@H](C)O)C(=O)NCC(=O)N[C@@H]([C@@H](C)O)C(=O)N1)[C@@H](C)O)C(C)C)C(=O)N[C@@H](Cc1ccc(O)cc1)C(=O)N[C@@H](CCC(N)=O)C(=O)N[C@@H](Cc1ccccc1)C(=O)N[C@H](C(=O)N[C@@H](CC(=O)O)C(=O)N[C@@H](CCCCN)C(=O)N[C@@H](CC(=O)O)C(=O)N[C@@H](CCCCN)C(=O)N[C@@H](CC(=O)O)C(=O)N[C@@H](CC(N)=O)C(=O)N[C@H](C(=O)N[C@@H](C)C(=O)N1CCC[C@H]1C(=O)N[C@@H](CCCNC(=N)N)C(=O)N[C@@H](CO)C(=O)N[C@@H](CC(N)=O)C(=O)N[C@H](C(=O)NCC(=O)N1CCC[C@H]1C(=O)N[C@@H](CCC(N)=O)C(=O)NCC(=O)N[C@@H](Cc1ccc(O)cc1)C(N)=O)C(C)C)C(C)C)[C@@H](C)O [compound 138] (H-GCRTGTCTVQRLAHQIYQFTDKDKDNVAPRSNVGPQGY-NH2; disulfide 2-7; N-terminus assumed) | 35 | 6.800
4 | CC[C@H](C)[C@H](NC(=O)[C@H](CCCCN)NC(=O)[C@H](CO)NC(=O)[C@H](CCCNC(=N)N)NC(=O)[C@@H]1CCCN1C(=O)[C@H](C)NC(=O)[C@@H](NC(=O)[C@H](CC(N)=O)NC(=O)[C@H](CC(=O)O)NC(=O)[C@H](CCCCN)NC(=O)[C@H](CC(=O)O)NC(=O)[C@H](CCCCN)NC(=O)[C@H](CC(=O)O)NC(=O)[C@@H](NC(=O)[C@H](Cc1ccccc1)NC(=O)[C@H](CCC(N)=O)NC(=O)[C@H](Cc1ccc(O)cc1)NC(=O)[C@@H](NC(=O)[C@H](CCC(N)=O)NC(=O)[C@H](Cc1c[nH]cn1)NC(=O)[C@H](C)NC(=O)[C@H](CC(C)C)NC(=O)[C@H](CCCNC(=N)N)NC(=O)[C@H](CCC(N)=O)NC(=O)[C@@H](NC(=O)[C@@H](NC(=O)[C@@H]1CSSC[C@H](NC(=O)CN)C(=O)N[C@@H](CCCNC(=N)N)C(=O)N[C@@H](Cc2ccccc2)C(=O)NCC(=O)N[C@@H]([C@@H](C)O)C(=O)N1)[C@@H](C)O)C(C)C)[C@@H](C)CC)[C@@H](C)O)C(C)C)C(=O)NCC(=O)N1CCC[C@H]1C(=O)N[C@@H](CCC(N)=O)C(=O)NCC(=O)N[C@@H](Cc1ccc(O)cc1)C(N)=O [compound 387] (H-GCRFGTCTVQRLAHQIYQFTDKDKDNVAPRSKIGPQGY-NH2; disulfide 2-7; N-terminus assumed) | 40 | 14.300

Next, values leading:

Row | EC50 (hAMY3 receptor) [pM] | Max ThT signal (%) [1] [%] | Structure (SMILES)
5 | 18 | 8.550 | CC[C@H](C)[C@H](NC(=O)[C@H](CCC(N)=O)NC(=O)[C@H](C)NC(=O)[C@H](C)NC(=O)[C@H](CC(C)C)NC(=O)[C@H](CCCNC(N)=O)NC(=O)[C@H](CCC(N)=O)NC(=O)[C@@H](NC(=O)[C@@H](NC(=O)[C@@H]1CSSC[C@H](NC(=O)[C@@H](N)CCCCN)C(=O)N[C@@H](CC(N)=O)C(=O)N[C@@H]([C@@H](C)O)C(=O)N[C@@H](C)C(=O)N[C@@H]([C@@H](C)O)C(=O)N1)[C@@H](C)O)C(C)C)C(=O)N[C@@H](Cc1ccc(O)cc1)C(=O)N[C@@H](CCC(N)=O)C(=O)N[C@@H](Cc1ccccc1)C(=O)N[C@H](C(=O)N[C@@H](CC(=O)O)C(=O)N[C@@H](CCCCN)C(=O)N[C@@H](CC(=O)O)C(=O)N[C@@H](CCCCN)C(=O)N[C@@H](CC(=O)O)C(=O)N[C@@H](CC(N)=O)C(=O)N[C@H](C(=O)N[C@@H](C)C(=O)N1CCC[C@H]1C(=O)N1CCC[C@H]1C(=O)N[C@H](C(=O)N[C@@H](CC(N)=O)C(=O)N[C@H](C(=O)NCC(=O)N[C@@H](CO)C(=O)N[C@@H](CC(N)=O)C(=O)NCC(=O)N1C[C@H](O)C[C@H]1C(N)=O)C(C)C)[C@@H](C)O)C(C)C)[C@@H](C)O [compound 243] (H-KCNTATCTVQ[Cit]LAAQIYQFTDKDKDNVAPPTNVGSNG[Hyp]-NH2; disulfide 2-7; N-terminus assumed)
6 | 27 | 13.600 | CC[C@H](C)[C@H](NC(=O)[C@H](CCC(N)=O)NC(=O)[C@H](Cc1c[nH]cn1)NC(=O)[C@H](C)NC(=O)[C@H](CC(C)C)NC(=O)[C@H](CCCNC(N)=O)NC(=O)[C@H](CCC(N)=O)NC(=O)[C@@H](NC(=O)[C@@H](NC(=O)[C@@H]1CSSC[C@H](NC(=O)[C@@H](N)CCCCN)C(=O)N[C@@H](CC(N)=O)C(=O)N[C@@H]([C@@H](C)O)C(=O)N[C@@H](C)C(=O)N[C@@H]([C@@H](C)O)C(=O)N1)[C@@H](C)O)C(C)C)C(=O)N[C@@H](Cc1ccc(O)cc1)C(=O)N[C@@H](CCC(N)=O)C(=O)N[C@@H](Cc1ccccc1)C(=O)N[C@H](C(=O)N[C@@H](CC(=O)O)C(=O)N[C@@H](CCCCN)C(=O)N[C@@H](CC(=O)O)C(=O)N[C@@H](CCCCN)C(=O)N[C@@H](CC(=O)O)C(=O)N[C@@H](CC(N)=O)C(=O)N[C@H](C(=O)N[C@@H](C)C(=O)N1CCC[C@H]1C(=O)N[C@@H](CCCNC(=N)N)C(=O)N[C@H](C(=O)N[C@@H](CCCCN)C(=O)N[C@H](C(=O)NCC(=O)N[C@@H](CO)C(=O)N[C@@H](CC(N)=O)C(=O)NCC(=O)N1C[C@H](O)C[C@H]1C(N)=O)C(C)C)[C@@H](C)O)C(C)C)[C@@H](C)O [compound 248] (H-KCNTATCTVQ[Cit]LAHQIYQFTDKDKDNVAPRTKVGSNG[Hyp]-NH2; disulfide 2-7; N-terminus assumed)

Reference: US12139520B2 (priority 2020, dated 2024)
